What was measured:
[1] = Pharmacokinetic (PK) data from intravenous (IV) administration of DHM, blood samples analysed by LC-MS/MS; format: in vivo, Sprague-Dawley rats; conditions: Sprague-Dawley, rat, 1 mg/kg
Description: The DUNHM was administered in an 0.9% saline solution. No sodium caprate (sodium decanoate, Na caprate) was administered.

[2] = Pharmacokinetic (PK) data from oral administration of DHM in enteric capsules, with or without sodium caprate; format: in vivo, Sprague-Dawley rats; conditions: Sprague-Dawley, rat, blood; for Tmax / AUC / Cmax: po; for AUC: DHM AUC; for Cmax: DHM Cmax
in vivo = conditions: Sprague-Dawley, rat, 1.3 mg/kg
Description: A pharmacokinetic study can be carried out to evaluate animal pharmacokinetics.
A blood sample was collected from each rat at predetermined times and analyzed with LC-MS/MS. […] Error bars for each point in time based on the results for each of the rats in the set are shown. […] Bioavailability (Fabs) was calculated as
where AUCoral and Doral indicate the AUC and dosage for a given oral administration, and AUCIV and Div indicate the AUC and dosage for the intravenous (IV) administration set forth in Example 1, above.
Error bars for each point in time based on the results for each of the rats in the set are shown.

[3] = background statement, ref. [31]; cited from earlier work
[4] = 1.1 mg/kg, 73.1±1.1 mg/kg crystalline DHM, enteric capsules (Eudragit L100-55 coated), Na caprate:DHM 0:1, FIG. 3A
[5] = 70.6±2.7 mg/kg crystalline DHM, enteric capsules, sodium caprate approx. 141.2 mg/kg (2:1), FIG. 3D
[6] = 75.5±2.0 mg/kg crystalline DHM, enteric capsules, sodium caprate approx. 75.5 mg/kg (1:1), FIG. 3C
[7] = 92.6±3.0 mg/kg crystalline DHM, enteric capsules, sodium caprate approx. 23.2 mg/kg (1:4), FIG. 3B

AUC [1]: 11.6 ± 4.9 ng·h/mL | Cmax [1]: 12.5 ± 0.5 ng/mL | bioavailability ([2]; 1.1 mg/kg): 19.5 ± 9.5% | Tmax [2, 4]: 5.4 ± 2.6 h | AUC [2, 4]: 167 ± 83.3 ng·h/mL | Cmax [2, 4]: 27.9 ± 1.5 ng/mL | Tmax [2, 5]: 4 h | Tmax [2, 6]: 4 h | Tmax [2, 7]: 6 h | AUC [2, 5]: 431 ± 101 ng·h/mL | AUC [2, 6]: 284 ± 20.1 ng·h/mL | AUC [2, 7]: 222 ± 44.3 ng·h/mL | Cmax [2, 5]: 70.2 ± 6.5 ng/mL | Cmax [2, 6]: 62.3 ± 4.3 ng/mL | Cmax [2, 7]: 52.7 ± 3.6 ng/mL | bioavailability (in vivo; DHM Bioavailability (Fabs)): 34.1 ± 12.7% | AUC (in vivo; po, DHM AUC): 314 ± 115 ng·h/mL | Cmax (in vivo; po, DHM Cmax): 46.2 ± 4 ng/mL | Tmax (in vivo; po, Tmax): 4.7 ± 1.8 h
Structure (SMILES): O=C1c2c(O)cc(O)cc2O[C@H](c2cc(O)c(O)c(O)c2)[C@H]1O [DHM, dihydromyricetin]
oral bioavailability [3]: less than 5%

Source: patent publication US20260263413A1 (priority 2019, published 2026)
